Consider one compound from article PMC11142126 (bioRxiv, 2024).

By Kd is commonly meant the free concentration of one partner at which half of the binding sites on the other are occupied at equilibrium, for simple one-to-one binding.

The target in assay [1] is T1, PPM1D (Homo sapiens, UniProt O15297).
T1 sequence (O15297 1-420): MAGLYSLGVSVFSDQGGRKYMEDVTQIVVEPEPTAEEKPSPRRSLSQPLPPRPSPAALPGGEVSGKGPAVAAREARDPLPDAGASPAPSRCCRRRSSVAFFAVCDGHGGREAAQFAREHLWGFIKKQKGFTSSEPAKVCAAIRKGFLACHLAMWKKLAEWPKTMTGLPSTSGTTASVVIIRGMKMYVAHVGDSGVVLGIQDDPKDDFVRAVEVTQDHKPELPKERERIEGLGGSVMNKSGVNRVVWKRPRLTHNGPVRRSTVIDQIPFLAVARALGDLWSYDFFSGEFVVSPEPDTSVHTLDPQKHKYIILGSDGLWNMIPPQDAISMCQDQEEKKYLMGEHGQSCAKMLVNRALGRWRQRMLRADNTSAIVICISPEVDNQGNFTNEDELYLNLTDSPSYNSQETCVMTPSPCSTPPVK
Nature of the assay: SPR. The assay is classed as binding.

The test system of assay [2] is MOLM13 TP53 WT (MOLM13-tPPM1D). The experiment in a line: cells. The note with it: Homo sapiens, MOLM-13, read-out: 461 / 5.3 / 107.
Assay [3] deals with K562 p21-ffLuc reporter (wildtype TP53). The experiment in a line: cells. As to conditions: Homo sapiens, K562, read-out: 461 / 5.3 / 107.
For assay [4], the system named is PPM1D in MOLM13-tPPM1D cells. The experiment in a line: cells. As to conditions: read-out: 461 / 5.3 / 107.
Assay [5] deals with T1, PPM1D. The experiment in a line: biochemical.

On PPM1D [1], `Cc1ncc(Cl)cc1NCc1ccc(C(=O)N[C@@H](CC2CCCC2)C(=O)NC2CC2)s1` [GSK2830371] yielded a Kd of 8 nM. The IC50 in assay [2] was 394 nM; at PPM1D [5] it was 20 nM. The figures for the EC50 in assay [3] and in assay [4] were 221 nM and 383 nM, respectively.
